# Experimental data as given in patent publication US20090215796A1, “Compositions, Kits and Methods for a Titration Schedule for Pardoprunox Compounds” (Solvay Pharmaceuticals B.V., priority 2008, published 2009).
# Columns and labels:
# human subjects = assay: Clinical investigations on pardoprunox hydrochloride (general tolerability); type: in vivo
# animal models = conditions: cited from earlier work
# dopamine D3 receptor = dopamine D3 receptor (Homo sapiens, UniProt P35462); conditions: cited from earlier work
# dopamine D3 receptor, sequence (P35462 whole entry): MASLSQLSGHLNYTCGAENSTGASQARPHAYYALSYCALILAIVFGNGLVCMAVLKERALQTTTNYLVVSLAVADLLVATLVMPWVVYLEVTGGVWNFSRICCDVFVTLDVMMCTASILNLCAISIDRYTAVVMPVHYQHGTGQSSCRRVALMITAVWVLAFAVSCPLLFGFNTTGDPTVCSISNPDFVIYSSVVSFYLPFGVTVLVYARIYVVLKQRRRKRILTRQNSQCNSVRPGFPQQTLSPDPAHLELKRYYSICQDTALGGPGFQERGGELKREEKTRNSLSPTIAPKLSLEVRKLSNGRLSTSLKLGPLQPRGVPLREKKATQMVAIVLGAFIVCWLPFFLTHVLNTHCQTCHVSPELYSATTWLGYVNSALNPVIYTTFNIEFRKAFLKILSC
# 5-HT1A = biological target: T1, 5-HT1A (Homo sapiens, UniProt P08908); conditions: cited from earlier work
# T1 sequence (P08908 1-422): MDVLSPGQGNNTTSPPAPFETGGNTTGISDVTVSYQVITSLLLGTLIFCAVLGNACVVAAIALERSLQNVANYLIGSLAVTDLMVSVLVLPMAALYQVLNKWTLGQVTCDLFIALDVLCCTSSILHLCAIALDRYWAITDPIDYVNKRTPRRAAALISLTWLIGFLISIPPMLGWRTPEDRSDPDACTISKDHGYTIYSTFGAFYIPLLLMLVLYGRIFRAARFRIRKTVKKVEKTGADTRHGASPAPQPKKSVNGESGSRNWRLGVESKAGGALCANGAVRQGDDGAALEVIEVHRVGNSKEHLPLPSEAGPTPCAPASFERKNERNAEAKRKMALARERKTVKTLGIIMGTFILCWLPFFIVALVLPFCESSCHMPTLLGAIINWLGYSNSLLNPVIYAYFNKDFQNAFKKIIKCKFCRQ
# dopamine D2 receptor = dopamine D2 receptor (Homo sapiens, UniProt P14416); conditions: cited from earlier work
# dopamine D2 receptor, sequence (P14416 whole entry): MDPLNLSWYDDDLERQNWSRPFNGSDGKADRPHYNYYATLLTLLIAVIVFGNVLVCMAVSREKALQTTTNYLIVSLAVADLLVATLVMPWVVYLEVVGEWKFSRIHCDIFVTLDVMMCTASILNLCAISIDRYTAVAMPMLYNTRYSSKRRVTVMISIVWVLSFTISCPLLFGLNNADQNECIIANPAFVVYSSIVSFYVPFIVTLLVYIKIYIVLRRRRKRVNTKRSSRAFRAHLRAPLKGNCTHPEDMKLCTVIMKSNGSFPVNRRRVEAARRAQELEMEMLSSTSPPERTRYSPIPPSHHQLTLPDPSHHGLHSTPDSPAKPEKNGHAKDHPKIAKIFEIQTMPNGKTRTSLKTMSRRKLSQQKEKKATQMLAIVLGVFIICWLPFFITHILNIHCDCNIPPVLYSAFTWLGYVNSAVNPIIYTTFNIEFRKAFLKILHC
# subjects with early PD = assay: Double-blind, placebo-controlled proof of principle study S308.2.004, pardoprunox monotherapy; type: in vivo, human
# Description: In a double-blind, placebo-controlled proof of principle (PoP) study (S308.2.004), the effects of pardoprunox on efficacy, safety and tolerability as monotherapy in early PD were investigated including 138 randomized and treated subjects. Following a fixed-flexible titration period (average length of 24 days), subjects were kept on maintenance dose levels for three weeks (9, 12, 15, 18, 24, 30, 36 or 45 mg/day). Study medication was taken orally three times daily (tid), in the morning, at noon and in the evening, with any missed doses not taken subsequently.
# The dose of pardoprunox was progressively titrated from 0.3 mg/day to 9 mg/day according to a predefined schedule within 10 days, and to 30 mg/day within 20 days, by giving single dose unit or a combination of single dose unit. Daily doses were given over the day in the form of three dosage units. Up to the dose of 30 mg/day the titration was based on tolerability only, meaning that every next day (until step 10) or every other day (step 10-14) the dose was to be increased with one step if well-tolerated by the patient (see Table 3). […] From that moment, the patient had to stay on that lower dose level for 2 full days (at least 6 administrations) before trying the higher level again. The first administration of the higher dose had to be done in the morning. For a given titration step only one subsequent second attempt was allowed to reach the higher dose level. In total, three dose adjustments (on different titration steps) were allowed. If patients still could not reach a certain dose level after two sequential attempts and that dose level was below the minimum required dose level of 9 mg/day, they were not allowed to enter the maintenance phase. If a dose level of at least 9 mg/day has already been reached, they were allowed to maintain that dose level for the entire maintenance phase. Patients who reached the 30 mg/day dose could continue to escalate to 45 mg if tolerability allowed, and if further efficacy was expected. […]
# [1] = tested on: subjects with PD characterized by motor fluctuations; assay: Safety study S308.3.005, two titration schedules of pardoprunox as adjunctive treatment to L-dopa; type: in vivo, human
# Description: In this study, primarily a safety study, 62 subjects with PD characterized by motor fluctuations were randomized to one of three different treatment arms, consisting of two pardoprunox treatment arms (total daily dose 0.3-42 mg three times daily [tid]; groups 1 [25 subjects] and 2 [26 subjects]) and one placebo arm [11 subjects]). The study included a seven-week ascending dose period of pardoprunox as adjunctive treatment to L-dopa. The effect of two different titration schedules was investigated on the safety and tolerability profile, as well as the need and time required for L-dopa dose and/or regimen adjustments (see Table 4). The difference between the two pardoprunox groups was in titration steps taken to achieve at the same time the main study dose levels, namely Group 1—weekly, larger dose increments versus Group 2—with every 3 and 4-days smaller dose steps to the same ‘end of week’ pardoprunox main doses. In the group with the more gradual titration more than 92% of the subjects (24 out of 26) reached doses of 18 mg/day or higher, and 65% (17 out of 26 subjects) reached the highest dose level of 42 mg/day.
# early PD patients = assay: First pivotal study S308.3.001, fixed and flexible dose arms versus placebo; type: in vivo, human
# Description: In the first pivotal study in early PD patients (study S308.3.001), the efficacy and safety of two fixed dose arms of pardoprunox (6 mg/day [n=115; Group 1] and 12 mg/day [n=118; Group 2]), and a flexible dose arm (12-42 mg/day [n=116; Group 3]) was compared to placebo (n=119) (see Table 6 for titration schedules used).
SMILES,tolerability (human subjects; clinical investigations),tolerability (human subjects; healthy human subjects),anti-PD effect (animal models),antidepressant and anxiolytic efficacy (animal models),agonist activity at dopamine D3 receptor (dopamine D3 receptor),agonist activity at 5-HT1A (5-HT1A),agonist activity at dopamine D2 receptor (dopamine D2 receptor),"efficacy between subgroups treated with 9-15 mg/day, 18-30 mg/day and >30-45 mg/day (subjects with early PD; explorative evaluation, dose/effect plot)","subjects who reached the highest dose level of 45 mg/day (subjects with early PD; flexible titration based on tolerability, tid oral)","subjects treated with pardoprunox doses of ≧30 mg/day (subjects with early PD; flexible titration based on tolerability, tid oral, maintenance 9-45 mg/day)",doses or titration steps not tolerated (defined as causing more than 20% drop outs) ([1]; 0.3-42 mg/day tid),"subjects who terminated the study due to treatment related Adverse Effects ([1]; between 18 and 30 mg/day, group with smaller dose increments (four subjects)) [%]","drop-out rate ([1]; group with the larger, weekly dose increments (Group 1) compared with Group 2 and placebo, FIG. 1)","subjects who reached the highest dose level of 42 mg/day ([1]; group with the more gradual titration (Group 2), 17 out of 26 subjects) [%]","drop out rate due to treatment related Adverse Effects ([1]; up to the 18 mg/day dose, group with smaller dose increments) [%]",tolerability (early PD patients; 6 mg/day fixed dose group versus higher dose groups),"primary outcome measure UPDRS motor score versus placebo (early PD patients; all active treatment arms: 6 mg/day, 12 mg/day, 12-42 mg/day)","minimum effective dose (early PD patients; early PD patient population, conclusion from study) [mg/day]"
"CN1CCN(c2cccc3[nH]c(=O)oc23)CC1.Cl [pardoprunox hydrochloride, 7-(4-methyl)-1-piperazinyl-2(3H)-benzoxazolone hydrochloride]",well tolerated,,,,,,,,,,,,,,,,,
"CN1CCN(c2cccc3[nH]c(=O)oc23)CC1 [pardoprunox, 7-(4-methyl)-1-piperazinyl-2(3H)-benzoxazolone]",,relatively well tolerated,marked and long-lasting anti-PD effect,evidence of antidepressant and anxiolytic efficacy,partial dopamine D2 and D3 receptor agonist,full 5-HT1A agonist activity,partial dopamine D2 and D3 receptor agonist,did not provide any clear differences in efficacy,approximately 16%,Approximately 40%,no particular doses or titration steps that could not be tolerated,15,much higher drop-out rate,65,4,better than that of the higher dose groups,statistically superior to placebo,< 12
